Laboratory results from patent publication US9540345B2, “Antiviral compounds” (priority 2013, dated 2017).
Where a name gives a salt, the structure may show the parent alone. Read-outs that look alike come from different tables or passages of the source.

Key:
[1] = system: pseudotyped VSV G particles (VSVpp); assay: microbe, parasite or virus in culture; type: cell-based, vesicular stomatitis virus
[2] = system: pseudotyped HCV GT1b particles (HCVpp); assay: microbe, parasite or virus in culture; type: cell-based, HCV GT1b Con1 strain
[3] = Vesicular stomatitis virus, 72 h, read-out: VSVpp (EC50, μM)
[4] = Hepatitis C virus, GT1B, 72 h, read-out: HCVpp GT-1b (EC50, μM)

Row | Compound | EC50 [1, 3] [µM] | EC50 [2, 4] [µM] | EC50 ([1]; read-out: VSVpp (EC50)) [µM] | EC50 ([2]; read-out: HCVpp GT-1b (EC50)) [µM]
1 | COc1cccc(-c2c(Cl)cc(Nc3n[nH]c(N)n3)cc2Cl)n1 [Compound 44, N-3-[3,5-Dichloro-4-(6-methoxy-pyridin-2-yl)-phenyl]-1H-[1,2,4]triazole-3,5-diamine] | 7.8 | 1.16 |  | 
2 | Nc1nc(Nc2cc(Cl)c(-n3ccccc3=O)c(Cl)c2)n[nH]1 [Compound 30, 1-[4-(5-Amino-1H-[1,2,4]triazol-3-ylamino)-2,6-dichloro-phenyl]-1H-pyridin-2-one] | 5.6 | 5.75 |  | 
3 | Nc1nc(Nc2cc(Cl)c(-c3ccncc3)c(Cl)c2)n[nH]1 [Compound 35, N-3-(3,5-Dichloro-4-(pyridin-4-yl)phenyl)-1H-1,2,4-triazole-3,5-diamine] | 2.5 | 0.338 |  | 
4 | Nc1nc(Nc2cc(Cl)c(-c3cc[nH]n3)c(Cl)c2)n[nH]1 [Compound 38, N-3-[3,5-Dichloro-4-(1H-pyrazol-3-yl)-phenyl]-1H-[1,2,4]triazole-3,5-diamine] | 35.8 | 3.39 |  | 
5 | Nc1n[nH]c(Nc2cc(F)c(-c3cccnc3)c(C(F)(F)F)c2)n1 [Compound 10, N^5-(3-Fluoro-4-(pyridin-3-yl)-5-trifluoromethylphenyl)-1H-[1,2,4]-triazole-3,5-diamine] | 34.2 | 1.24 |  | 
6 | 5-[4-(5-Amino-1H-[1,2,4]triazol-3-ylamino)-2-chloro-6-trifluoromethyl-phenyl]-pyridine-2-sulfonic acid tert-butylamide [Compound 24] |  |  | 4.1 | 0.008
7 | N3-(3,5-dichloro-4-(1,2,3,6-tetrahydropyridin-4-yl)phenyl)-1H-1,2,4-triazole-3,5-diamine [Compound 19] |  |  |  | 0.505
8 | COc1ccc(-c2c(Cl)cc(Nc3n[nH]c(N)n3)cc2Cl)cn1 [Compound 1, N*3*-[3,5-Dichloro-4-(6-methoxy-pyridin-3-yl)-phenyl]-1H-[1,2,4]triazole-3,5-diamine] | 3.7 | 0.767 |  | 
9 | Nc1nc(Nc2cc(Cl)c(-c3ccc(=O)[nH]c3)c(Cl)c2)n[nH]1 [Compound 3, 5-[4-(5-Amino-1H-[1,2,4]triazol-3-ylamino)-2,6-dichloro-phenyl]-1H-pyridin-2-one] | ≥ 10 | 0.364 |  | 
10 | Nc1nc(Nc2cc(Cl)c(-c3cncc(Cl)c3)c(Cl)c2)n[nH]1 [Compound 43, N-3-[3,5-Dichloro-4-(5-chloro-pyridin-3-yl)-phenyl]-1H-[1,2,4]triazole-3,5-diamine] | 5.3 | 0.771 |  | 
11 | COc1ncc(-c2c(Cl)cc(Nc3n[nH]c(N)n3)cc2Cl)cn1 [Compound 40, N-3-[3,5-Dichloro-4-(2-methoxy-pyrimidin-5-yl)-phenyl]-1H-[1,2,4]triazole-3,5-diamine] | 3.3 | 0.52 |  | 
12 | Nc1nc(Nc2ccc(-n3ccccc3=O)cc2)n[nH]1 [Compound 28, 1-[4-(5-Amino-1H-[1,2,4]triazol-3-ylamino)-phenyl]-1H-pyridin-2-one] | ≥ 100 | 100 |  | 
13 | N3-(3-chloro-4-(1-methyl-1H-1,2,4-triazol-5-yl)phenyl)-1H-1,2,4-triazole-3,5 diamine [Compound 16] |  |  |  | 34.8
14 | Cn1cc(-c2c(Cl)cc(Nc3n[nH]c(N)n3)cc2Cl)c(C(F)(F)F)n1 [Compound 42, N-3-[3,5-Dichloro-4-(1-methyl-3-trifluoromethyl-1H-pyrazol-4-yl)-phenyl]-1H-[1,2,4]triazole-3,5-diamine] | 2.4 | 0.0527 |  | 
15 | CC(C)(C)OC(=O)N1CC2(C1)CN(c1c(Cl)cc(Nc3nc(N)n[nH]3)cc1Cl)C2 [Compound 12, 6-[4-(5-Amino-2H-[1,2,4]triazol-3-ylamino)-2,6-dichlorophenyl]-2,6-diaza-spiro[3.3]heptane-2-carboxylic acid tert-butyl ester] | ≥ 10 | 0.216 |  | 
16 | Nc1nc(Nc2cc(Cl)c(-c3ccnnc3)c(Cl)c2)n[nH]1 [Compound 33, N3-(3,5-dichloro-4-(pyridazin-4-yl)phenyl)-1H-1,2,4-triazole-3,5-diamine] | 10.6 | 0.78 |  | 
17 | CC(C)(C)OC(=O)N1CC=C(c2c(Cl)cc(Nc3n[nH]c(N)n3)cc2Cl)CC1 [Compound 18, tert-Butyl 4-(4-(5-amino-1H-1,2,4-triazol-3-ylamino)-2,6-dichlorophenyl)-5,6-dihydropyridine-1(2H)-carboxylate] | ≥ 10 | 0.088 |  | 
18 | Nc1nc(Nc2ccc(-n3ccccc3=O)c(Cl)c2)n[nH]1 [Compound 29, 1-[4-(5-Amino-1H-[1,2,4]triazol-3-ylamino)-2-chloro-phenyl]-1H-pyridin-2-one] | 8.1 | 13.7 |  | 
19 | Nc1nc(Nc2cc(Cl)c(-c3cncnc3)c(Cl)c2)n[nH]1 [Compound 39, N-3-(3,5-Dichloro-4-pyrimidin-5-yl-phenyl)-1H-[1,2,4]triazole-3,5-diamine] | 5.1 | 0.536 |  | 

Row | Compound | EC50 [1, 3] [µM] | EC50 [2, 4] [µM] | EC50 ([1]; read-out: VSVpp (EC50)) [µM] | EC50 ([2]; read-out: HCVpp GT-1b (EC50)) [µM]
20 | CC(=O)c1sccc1-c1c(Cl)cc(Nc2n[nH]c(N)n2)cc1Cl [Compound 34, 1-{3-[4-(5-Amino-1H-[1,2,4]triazol-3-ylamino)-2,6-dichloro-phenyl]-thiophen-2-yl}-ethanone] | 1.8 | 0.144 |  | 
21 | CS(=O)(=O)c1ccc(-c2c(Cl)cc(Nc3nc(N)n[nH]3)cc2Cl)cn1 [Compound 11, N^5-(3,5-Dichloro-4-(6-methanesulfonyl-pyridin-3-yl)-phenyl)-1H-[1,2,4]-triazole-3,5-diamine] | 2.2 | 0.271 |  | 
22 | CS(=O)(=O)c1cncc(-c2c(Cl)cc(Nc3n[nH]c(N)n3)cc2Cl)c1 [Compound 2, N*3*-[3,5-Dichloro-4-(5-methanesulfonyl-pyridin-3-yl)-phenyl]-1H-[1,2,4]triazole-3,5-diamine] | ≥ 10 | 0.386 |  | 
23 | N3-[3-Chloro-4-(1,2,3,6-tetrahydro-pyridin-4-yl)-5-trifluoromethyl-phenyl]-1H-[1,2,4]triazole-3,5-diamine hydrochloride [Compound 21] |  |  |  | 0.568
24 | Nc1nc(Nc2cc(Cl)c(-c3cc[nH]c(=O)c3)c(Cl)c2)n[nH]1 [Compound 7, 4-[4-(5-Amino-1H-[1,2,4]triazol-3-ylamino)-2,6-dichloro-phenyl]-1H-pyridin-2-one] | ≥ 10 | 0.809 |  | 
25 | Nc1nc(Nc2cc(Cl)c(C3=NCCCN3)c(Cl)c2)n[nH]1 [Compound 31, N3-(3,5-dichloro-4-(1,4,5,6-tetrahydropyrimidin-2-yl)phenyl)-1H-1,2,4-triazole-3,5-diamine. trifluoroacetic salt] | 4.7 | 5.45 |  | 
26 | CS(=O)(=O)Nc1ccc(-c2c(Cl)cc(Nc3n[nH]c(N)n3)cc2Cl)cn1 [Compound 8, N-{5-[4-(5-Amino-1H-[1,2,4]triazol-3-ylamino)-2,6-dichloro-phenyl]-pyridin-2-yl}-methanesulfonamide] | ≥ 10 | 0.386 |  | 
27 | CC(C)(NS(=O)(=O)c1ccc(-c2c(Cl)cc(Nc3n[nH]c(N)n3)cc2C(F)(F)F)cn1)C(F)(F)F [Compound 25, 5-[4-(5-Amino-1H-[1,2,4]triazol-3-ylamino)-2-chloro-6-trifluoromethyl-phenyl]-pyridine-2-sulfonic acid (2,2,2-trifluoro-1,1-dimethyl-ethyl)-amide] | ≥ 10 | 0.005 |  | 
28 | tert-Butyl 4-(4-(5-amino-1H-1,2,4-triazol-3-ylamino)-2-chloro-6-(trifluoromethyl)phenyl)-5,6-dihydropyridine-1(2H)-carboxylate [Compound 20] |  |  | 13.6 | 0.073
29 | N3-(2-chloro-4′-(4-methylpiperazin-1-yl)-6-(trifluoromethyl)biphenyl-4-yl)-1H-1,2,4-triazole-3,5-diamine [Compound 27] |  |  |  | 0.301
30 | Nc1nc(Nc2cc(Cl)c(-c3cccnc3)c(Cl)c2)n[nH]1 [Compound 37, N-3-(3,5-Dichloro-4-pyridin-3-yl-phenyl)-1H-[1,2,4]triazole-3,5-diamine] | 8.1 | 0.413 |  | 
31 | N*3*-{3-Chloro-4-[6-(propane-2-sulfonyl)-pyridin-3-yl]-5-trifluoromethyl-phenyl}-1H-[1,2,4]triazole-3,5-diamine [Compound 23] |  |  | 7.5 | 0.179
32 | Nc1ncc(-c2c(Cl)cc(Nc3n[nH]c(N)n3)cc2Cl)cn1 [Compound 5, N*3*-[4-(2-Amino-pyrimidin-5-yl)-3,5-dichloro-phenyl]-1H-[1,2,4]triazole-3,5-diamine] | 0.4 | 0.1 |  | 
33 | N*3*-(3,5-Dichloro-4-[1,2,4]triazolo[4,3-a]pyridin-3-yl-phenyl)-1H-[1,2,4]triazole-3,5-diamine [Compound 22] |  |  |  | 2.04
34 | NCC1(CO)CN(c2c(Cl)cc(Nc3nc(N)n[nH]3)cc2Cl)C1 [Compound 13, {3-Aminomethyl-1-[4-(5-amino-2H-[1,2,4]triazol-3-ylamino)-2,6-dichlorophenyl]-azetidin-3-yl}-methanol] | ≥ 10 | 10 |  | 
35 | Nc1nc(Nc2cc(Cl)c(-c3ccc(C(F)(F)F)nc3)c(Cl)c2)n[nH]1 [Compound 41, N-3-[3,5-Dichloro-4-(6-trifluoromethyl-pyridin-3-yl)-phenyl]-1H-[1,2,4]triazole-3,5-diamine] | 32.6 | 0.703 |  | 
36 | Nc1nc(Nc2cc(Cl)c(-c3ccc(Cl)s3)c(Cl)c2)n[nH]1 [Compound 36, N-3-[3,5-Dichloro-4-(5-chloro-thiophen-2-yl)-phenyl]-1H-[1,2,4]triazole-3,5-diamine] | 11.9 | 0.558 |  | 
37 | N3-(3-Chloro-4-(1-methyl-1H-tetrazol-5-yl)phenyl)-1H-1,2,4-triazole-3,5-diamine [Compound 15] |  |  |  | 6.72
38 | CNC(=O)c1ccc(-c2c(Cl)cc(Nc3n[nH]c(N)n3)cc2C(F)(F)F)cn1 [Compound 32, 5-(4-(5-amino-1H-1,2,4-triazol-3-ylamino)-2-chloro-6-(trifluoromethyl)phenyl)-N-methylpicolinamide] | 21.8 | 0.169 |  | 
